# Data from patent publication US20240408211A1, “COMPOSITIONS AND METHODS OF AMELIORATING AVERSIVENESS OF AVERSIVE STIMULI BY INHIBITION OF PURINERGIC RECEPTORS” (Monell Chemical Senses Center, priority 2021, published 2024).
# Columns and labels:
# [1] = system: mice; conditions: intraperitoneal administration; cited from earlier work
# [2] = system: C57BL/6J mice; experiment: Brief-exposure gustometer lick test after oral swabbing (or IP injection) of briefly anesthetized mice; type: in vivo, mouse
# Excerpt: The methods were adapted from those described by Vandenbeuch et al [Vandenbeuch, A., et al., Postsynaptic P2X3-containing receptors in gustatory nerve fibres mediate responses to all taste qualities in mice. J Physiol 593:1113-1125; 2015] who, (a) in anesthetized mice, flowed AF-353 over the anterior tongue then recorded gustatory nerve responses to tastants [see also (Larson, E. D., et al., Function, innervation, and neurotransmitter signaling in mice lacking Type-II taste cells. eNeuro 7; 2020)] and (b), in awake mice, injected AF-353 intraperitoneally then measured licking for the sweetener SC-45647. Here, we applied AF-353 to the oral cavity of briefly anesthetized mice then measured licking using procedures similar to those of our past work [Med Associates inc. Products: Gustometry, med-associates.com/product/davis-rig-for-mouse-16-bottle/. 2022; Taruno, A., et al., CALHM1 ion channel mediates purinergic neurotransmission of sweet, bitter and umami tastes. Nature 495:223-226; 2013; Tordoff, M. G., et al., Normal taste acceptance and preference of PANX1 knockout mice. Chem. Senses 2015 May 18. pii: bjv025; 2015; Tordoff, M. G.; Aleman, T. R.; McCaughey, S. A. Heightened avidity for trisodium pyrophosphate in mice lacking Taslr3. Chem. Senses 40:53-59; 2014; Tordoff, M. G.; Ellis, H. T. Taste dysfunction in BTBR mice due to a mutation of Itpr3, the inositol triphosphate receptor 3 gene. Physiol. Genomics 45:834-855; 2013] and other investigators [Glendinning, J. I.; Gresack, J.; Spector, A. C. A high-throughput screening procedure for identifying mice with aberrant taste and oromotor function. Chem. Senses 27:461-474; 2002].
# Groups of 16 male C57BL/6J mice aged 7 weeks old were purchased from The Jackson Laboratory (strain ID number 000664). They were maintained in a vivarium at 23° C. on a 12 h:12 h light/dark cycle, with lights off at 1800. When not being tested, mice were housed alone in plastic tub cages (26.5×17×12 cm) with a stainless-steel grid lid and wood chips scattered on the floor [see (Tordoff, M. G.; Bachmanov, A. A. Monell mouse taste phenotyping project. Monell Chemical Senses Center, monell.org/MMTPP. 2001) for details]. The mice ate pelleted chow (Teklad 8601) and drank deionized water according to the regimen described below. Each mouse was weighed daily, immediately before it was placed into a gustometer.
# Brief-exposure taste acceptance was assessed using MS160-Mouse gustometers manufactured by DiLog Instruments (now available from Med Associates). Each gustometer consists of a 14.5×30×15 cm test chamber with a motorized shutter that controls access to a taste solution. Bottles of taste solution are mounted on a rack that is precisely positioned by a stepper motor so that any one of eight different taste solutions can be presented to the mouse. The drinking spout of each bottle is part of a high-frequency alternating current contact circuit, so that each lick the mouse makes is detected and recorded. Details of construction and other technical information are available elsewhere [Med Associates inc. Products: Gustometry, med-associates.com/product/davis-rig-for-mouse-16-bottle/. 2022; Sheridan, C. Merck stakes out ‘irritable’ neuron territory with $1.25 billion. Nature biotechnology 34:900; 2016].
# To train the mice to sample taste solutions, they were first deprived of water for 22.5 h, and then placed into a gustometer with its shutter open. During this first training session, each mouse had continuous access to water for 30 min. It was then returned to its home cage and given water for 1 h. During the following two days, this procedure was repeated, except the shutter allowing access to water was closed 5 sec after each time the mouse began to lick, and was re-opened after a 7.5-sec interval. After 20 min, the mouse was returned to its home cage and given water for 1 h. By the second test using these procedures, nearly all mice had learned to obtain water during the 5-sec access periods. […]
# [3] = system: P2X3/P2X2/3; conditions: cited from earlier work
# [4] = system: rats; conditions: cited from earlier work
# [5] = 0.3, 1 or 3 mM swabbed orally for 4 min versus vehicle
# [6] = oral swabbing for 2, 4 or 8 min versus no swabbing
compound,measurement,setting,value
"COc1cc(C(C)C)c(Oc2cnc(N)nc2N)cc1I [AF-353, 5-[5-iodo-4-methoxy-2-(1-methylethyl)phenoxy]-2,4-pyrimidinediamine]",preference for SC-45647 shown by vehicle-administered mice,[1],eliminated
same,"licking for 1 mM QHCl, oral versus intraperitoneal administration of the same dose",[2]; 0.41 μmol/mouse,significantly more after AF-353 administered orally
same,licking for 1 mM QHCl versus DMSO vehicle,[2]; 0.41 μmol/mouse by oral swabbing or IP injection (either route),licked significantly more
same,effect on licking for capsaicin (ANOVA),[2]; 3 mM for 4 min,neither a main effect of AF-353 nor an AF-353× concentration interaction
same,licking of the hedonically positive tastant saccharin relative to DMSO vehicle,[2]; 3 mM for 4 min,licked less
same,licking of hedonically negative tastants relative to DMSO vehicle,"[2]; 3 mM for 4 min, all (QHCl, urea, denatonium, SOA, Tenofovir Alafenamide, Praziquantel, Ferroquine, citric acid) except NaCl and capsaicin",licked more
same,licking for 1 mM QHCl after oral treatment versus either vehicle,[2]; 3 mM in DMSO or alcohol+Tween,licked significantly more
same,influence of the vehicle composition (DMSO or alcohol+Tween) on licking rates,"[2]; 3 mM oral swab, water or 1 mM QHCl",did not influence licking rates
same,lick rates for 1 mM QHCl compared with deionized water,[2]; 3 mM swabbed orally for 4 min,statistically indistinguishable
same,licking after oral swabbing relative to oral swabbing with DMSO vehicle (FIG. 4A),"[2]; 3 mM, 0.41 μmol/mouse, route experiment",reduced licking
same,1 mM QHCl licking after 60-min interval relative to 10- and 30-min intervals,"[2]; 3 mM, 4 min",significantly reduced
same,"lick rates for 1 mM QHCl, 10-min versus 30-min swab-test interval","[2]; 3 mM, 4 min",no difference
same,effectiveness at 90 min after oral treatment,"[2]; 3 mM, 4 min, 1 mM QHCl licking",completely dissipated
same,lick rates for water by swab-test interval,"[2]; 3 mM, 4 min, interval 10, 30, 60 or 90 min",no effect
same,lick rate for 1 mM QHCl,[2]; [5],concentration-related increase
same,lick rates for deionized water,[2]; [5],no significant effects
same,Licks to water (mean ± SE licks made in 10-sec tests),"[2]; Capsaicin experiment, 3 mM oral swab",50 ± 9
same,Licks to water (mean ± SE licks made in 10-sec tests),"[2]; Citric acid experiment, 3 mM oral swab",44 ± 4
same,Licks to water (mean ± SE licks made in 10-sec tests),"[2]; Denatonium experiment, 3 mM oral swab",53 ± 3
same,Licks to water (mean ± SE licks made in 10-sec tests),"[2]; Ferroquine experiment, 3 mM oral swab",47 ± 3
same,Licks to water (mean ± SE licks made in 10-sec tests),"[2]; NaCl experiment, 3 mM oral swab",57 ± 5
same,Licks to water (mean ± SE licks made in 10-sec tests),"[2]; Praziquantel experiment, 3 mM oral swab",52 ± 3
same,Licks to water (mean ± SE licks made in 10-sec tests),"[2]; QHCl experiment, 3 mM oral swab",56 ± 4
same,Licks to water (mean ± SE licks made in 10-sec tests),"[2]; Saccharin experiment, 3 mM oral swab",14 ± 2
same,Licks to water (mean ± SE licks made in 10-sec tests),"[2]; Tenofovir experiment, 3 mM oral swab",56 ± 2
same,Licks to water (mean ± SE licks made in 10-sec tests),"[2]; Urea experiment, 3 mM oral swab",43 ± 5
same,lick rates for 1 mM QHCl,[2]; [6],increased monotonically
same,lick rates for deionized water,[2]; [6],reduced lick rates for deionized water significantly
same,P2X3/P2X2/3 antagonist potency,[3],high
same,pain caused by bone cancer,[4],attenuate
